Tests used:
[1] = target: Vasopressin V1a receptor (Homo sapiens, UniProt P37288)
[2] = target: Cannabinoid receptor 1 (Homo sapiens, UniProt P21554)
[3] = target: Gamma-aminobutyric acid receptor subunit alpha-1 (Rattus norvegicus, UniProt P62813); format: functional
[4] = target: Melanocortin receptor 4 (Homo sapiens, UniProt P32245)
[5] = target: T1, Glucocorticoid receptor (Homo sapiens, UniProt P04150)
T1 sequence (P04150 whole entry): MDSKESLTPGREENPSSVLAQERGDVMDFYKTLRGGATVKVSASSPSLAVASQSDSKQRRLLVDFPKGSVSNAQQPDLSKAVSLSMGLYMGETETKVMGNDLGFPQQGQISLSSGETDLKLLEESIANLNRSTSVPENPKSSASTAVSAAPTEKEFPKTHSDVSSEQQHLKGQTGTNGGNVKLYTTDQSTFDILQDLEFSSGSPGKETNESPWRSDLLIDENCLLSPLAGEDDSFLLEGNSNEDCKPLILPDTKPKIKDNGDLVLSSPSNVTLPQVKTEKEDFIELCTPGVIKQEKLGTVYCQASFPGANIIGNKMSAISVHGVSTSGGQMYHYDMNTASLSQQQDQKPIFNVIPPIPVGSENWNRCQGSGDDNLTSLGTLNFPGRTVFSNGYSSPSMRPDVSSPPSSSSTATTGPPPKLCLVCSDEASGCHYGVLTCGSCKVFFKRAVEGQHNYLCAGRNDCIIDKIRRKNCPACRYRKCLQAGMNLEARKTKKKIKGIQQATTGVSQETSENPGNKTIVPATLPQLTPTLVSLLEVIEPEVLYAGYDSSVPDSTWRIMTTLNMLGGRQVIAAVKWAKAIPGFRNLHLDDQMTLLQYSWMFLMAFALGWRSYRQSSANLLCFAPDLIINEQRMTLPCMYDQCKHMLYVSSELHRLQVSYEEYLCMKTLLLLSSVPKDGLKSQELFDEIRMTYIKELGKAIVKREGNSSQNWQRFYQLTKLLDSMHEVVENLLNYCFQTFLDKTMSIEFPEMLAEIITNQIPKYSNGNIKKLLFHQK

[6] = target: T2, Progesterone receptor (Homo sapiens, UniProt P06401); format: functional
T2 sequence (P06401 whole entry): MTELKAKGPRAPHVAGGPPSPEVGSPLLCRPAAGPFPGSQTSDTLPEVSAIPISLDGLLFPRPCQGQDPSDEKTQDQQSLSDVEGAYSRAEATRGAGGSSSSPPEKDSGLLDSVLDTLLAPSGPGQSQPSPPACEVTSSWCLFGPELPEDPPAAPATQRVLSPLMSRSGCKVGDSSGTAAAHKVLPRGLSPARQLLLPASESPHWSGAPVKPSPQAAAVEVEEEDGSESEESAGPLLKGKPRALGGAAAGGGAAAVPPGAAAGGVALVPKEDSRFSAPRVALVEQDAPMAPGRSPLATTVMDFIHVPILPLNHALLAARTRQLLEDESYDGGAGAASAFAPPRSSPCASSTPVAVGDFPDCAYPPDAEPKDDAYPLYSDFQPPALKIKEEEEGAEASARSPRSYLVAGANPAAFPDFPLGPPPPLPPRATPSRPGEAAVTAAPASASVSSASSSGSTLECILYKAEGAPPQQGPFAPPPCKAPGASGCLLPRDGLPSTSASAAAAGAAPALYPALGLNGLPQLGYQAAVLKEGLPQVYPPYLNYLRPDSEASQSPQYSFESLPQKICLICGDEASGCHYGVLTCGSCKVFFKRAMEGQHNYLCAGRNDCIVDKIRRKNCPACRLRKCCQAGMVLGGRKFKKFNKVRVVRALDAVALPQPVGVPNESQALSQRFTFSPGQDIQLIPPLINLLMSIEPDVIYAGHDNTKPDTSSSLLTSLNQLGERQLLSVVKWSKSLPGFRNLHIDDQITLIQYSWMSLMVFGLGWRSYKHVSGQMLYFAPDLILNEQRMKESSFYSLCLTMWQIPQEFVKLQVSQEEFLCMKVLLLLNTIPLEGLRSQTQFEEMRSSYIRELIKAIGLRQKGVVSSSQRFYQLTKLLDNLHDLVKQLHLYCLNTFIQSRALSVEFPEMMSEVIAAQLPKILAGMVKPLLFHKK

[7] = target: T3, Equilibrative nucleoside transporter 1 (Homo sapiens, UniProt Q99808)
T3 sequence (Q99808 whole entry): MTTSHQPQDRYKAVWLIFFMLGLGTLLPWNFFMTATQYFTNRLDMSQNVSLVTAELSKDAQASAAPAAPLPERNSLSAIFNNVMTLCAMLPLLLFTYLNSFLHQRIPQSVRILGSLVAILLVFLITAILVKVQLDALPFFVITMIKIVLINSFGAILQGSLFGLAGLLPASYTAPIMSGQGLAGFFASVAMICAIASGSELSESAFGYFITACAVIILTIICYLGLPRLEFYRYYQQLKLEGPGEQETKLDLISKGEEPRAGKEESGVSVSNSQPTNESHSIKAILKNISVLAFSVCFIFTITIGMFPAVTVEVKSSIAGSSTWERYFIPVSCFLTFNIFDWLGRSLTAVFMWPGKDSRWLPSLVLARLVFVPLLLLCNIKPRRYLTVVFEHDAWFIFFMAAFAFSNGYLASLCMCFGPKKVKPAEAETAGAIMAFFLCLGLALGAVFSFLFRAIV

[8] = target: T4, Thromboxane A2 receptor (Homo sapiens, UniProt P21731)
T4 sequence (P21731 whole entry): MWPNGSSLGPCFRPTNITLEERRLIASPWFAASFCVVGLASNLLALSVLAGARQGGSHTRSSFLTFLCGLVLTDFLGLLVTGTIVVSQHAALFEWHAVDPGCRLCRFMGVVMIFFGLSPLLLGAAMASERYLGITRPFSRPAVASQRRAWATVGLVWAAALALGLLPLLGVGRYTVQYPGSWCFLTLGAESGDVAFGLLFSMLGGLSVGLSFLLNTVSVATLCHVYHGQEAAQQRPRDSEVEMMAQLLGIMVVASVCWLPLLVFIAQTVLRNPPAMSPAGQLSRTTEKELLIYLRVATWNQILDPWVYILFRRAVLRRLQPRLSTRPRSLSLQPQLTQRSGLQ

[9] = target: Sodium-dependent serotonin transporter (Homo sapiens, UniProt P31645)
Sequence of Sodium-dependent serotonin transporter (P31645 whole entry): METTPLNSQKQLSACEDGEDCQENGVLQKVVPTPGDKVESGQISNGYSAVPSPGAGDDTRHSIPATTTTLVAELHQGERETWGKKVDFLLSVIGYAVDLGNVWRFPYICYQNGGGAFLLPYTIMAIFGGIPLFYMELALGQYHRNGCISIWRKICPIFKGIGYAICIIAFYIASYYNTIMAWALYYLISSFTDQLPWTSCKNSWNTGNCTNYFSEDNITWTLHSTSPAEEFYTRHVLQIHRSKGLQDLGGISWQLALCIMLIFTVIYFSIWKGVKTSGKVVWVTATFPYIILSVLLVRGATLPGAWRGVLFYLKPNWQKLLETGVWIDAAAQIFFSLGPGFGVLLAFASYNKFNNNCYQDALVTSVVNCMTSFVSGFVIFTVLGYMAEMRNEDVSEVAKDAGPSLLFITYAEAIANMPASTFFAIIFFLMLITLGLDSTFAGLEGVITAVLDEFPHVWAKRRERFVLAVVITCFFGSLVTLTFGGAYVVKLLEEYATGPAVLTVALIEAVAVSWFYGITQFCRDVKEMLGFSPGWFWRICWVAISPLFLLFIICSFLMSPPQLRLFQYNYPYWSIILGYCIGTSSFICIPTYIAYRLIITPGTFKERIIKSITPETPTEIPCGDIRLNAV
Note: assay procedure not described here.

Sequence of Gamma-aminobutyric acid receptor subunit alpha-1 (P62813 whole entry): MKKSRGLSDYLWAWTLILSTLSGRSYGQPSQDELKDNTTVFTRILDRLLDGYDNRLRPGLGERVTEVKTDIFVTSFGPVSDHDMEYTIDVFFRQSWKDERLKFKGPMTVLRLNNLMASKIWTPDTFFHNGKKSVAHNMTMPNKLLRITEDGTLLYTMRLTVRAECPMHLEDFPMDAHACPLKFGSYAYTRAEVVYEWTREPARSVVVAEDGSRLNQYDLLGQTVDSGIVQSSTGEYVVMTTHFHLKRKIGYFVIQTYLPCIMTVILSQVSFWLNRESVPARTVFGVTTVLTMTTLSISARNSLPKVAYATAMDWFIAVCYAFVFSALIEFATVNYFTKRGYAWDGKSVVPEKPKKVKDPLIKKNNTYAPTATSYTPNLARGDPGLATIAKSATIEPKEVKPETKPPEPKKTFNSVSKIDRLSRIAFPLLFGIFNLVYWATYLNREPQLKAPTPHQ
Sequence of Vasopressin V1a receptor (P37288 whole entry): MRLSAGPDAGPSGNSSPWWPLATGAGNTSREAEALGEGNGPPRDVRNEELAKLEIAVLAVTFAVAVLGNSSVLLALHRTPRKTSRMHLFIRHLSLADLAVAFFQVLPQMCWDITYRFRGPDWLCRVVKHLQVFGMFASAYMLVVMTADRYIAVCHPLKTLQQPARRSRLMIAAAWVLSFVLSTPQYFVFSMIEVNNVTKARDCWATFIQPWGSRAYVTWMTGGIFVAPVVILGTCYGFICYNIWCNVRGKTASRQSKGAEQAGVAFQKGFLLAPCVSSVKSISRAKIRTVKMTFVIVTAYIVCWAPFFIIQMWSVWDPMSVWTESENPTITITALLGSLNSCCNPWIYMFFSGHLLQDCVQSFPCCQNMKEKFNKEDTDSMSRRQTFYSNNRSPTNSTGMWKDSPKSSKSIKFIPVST
Sequence of Melanocortin receptor 4 (P32245 whole entry): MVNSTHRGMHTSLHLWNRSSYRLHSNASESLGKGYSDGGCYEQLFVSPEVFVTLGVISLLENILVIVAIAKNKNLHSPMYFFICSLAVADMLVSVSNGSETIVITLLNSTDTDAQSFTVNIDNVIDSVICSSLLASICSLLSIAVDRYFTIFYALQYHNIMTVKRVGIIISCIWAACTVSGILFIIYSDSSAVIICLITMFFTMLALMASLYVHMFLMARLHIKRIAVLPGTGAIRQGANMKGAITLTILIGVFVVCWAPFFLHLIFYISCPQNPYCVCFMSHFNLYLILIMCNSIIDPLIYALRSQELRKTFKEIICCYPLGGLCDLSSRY
Sequence of Cannabinoid receptor 1 (P21554 whole entry): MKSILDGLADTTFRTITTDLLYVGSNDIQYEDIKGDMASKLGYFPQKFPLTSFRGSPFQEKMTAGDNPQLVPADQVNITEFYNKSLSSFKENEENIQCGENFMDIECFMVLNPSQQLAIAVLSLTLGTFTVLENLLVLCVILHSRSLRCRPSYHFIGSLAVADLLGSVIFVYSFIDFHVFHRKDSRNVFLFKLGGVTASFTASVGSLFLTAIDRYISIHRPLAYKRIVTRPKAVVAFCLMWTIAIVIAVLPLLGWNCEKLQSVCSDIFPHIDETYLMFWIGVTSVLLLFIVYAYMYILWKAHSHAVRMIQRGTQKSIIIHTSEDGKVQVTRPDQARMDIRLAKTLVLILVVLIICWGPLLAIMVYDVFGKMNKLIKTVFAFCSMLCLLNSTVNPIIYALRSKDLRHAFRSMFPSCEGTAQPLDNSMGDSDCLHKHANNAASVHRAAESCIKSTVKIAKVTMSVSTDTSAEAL

SMILES | AC50 [1] | AC50 [2] | AC50 [3] | AC50 [4] | AC50 [5] | AC50 [6] | AC50 [7] | AC50 [8] | AC50 [9]
C[N+]1(C)CCC(=C(c2ccccc2)c2ccccc2)CC1 | > 30 µM | > 10 µM | > 10 µM | > 30 µM | > 10 µM | > 10 µM | > 10 µM | > 30 µM | –
Cc1cc2c(cc1S(N)(=O)=O)S(=O)(=O)CCC2 | – | – | – | – | – | – | – | – | > 30 µM
C[C@H](N[C@@H](CCc1ccccc1)C(=O)O)C(=O)N1Cc2ccccc2C[C@H]1C(=O)O | – | – | – | – | – | – | – | – | > 30 µM
O=C(O)[C@@H]1C[C@@H](O)CN1 | – | – | – | – | – | – | – | – | > 30 µM
CN(C)Cc1nnc2n1-c1ccc(Cl)cc1C(c1ccccc1)=NC2 [ADINAZOLAM] | > 10 µM | > 10 µM | 0.19 µM | > 10 µM | > 10 µM | > 10 µM | > 10 µM | > 10 µM | –
CC1(C)S[C@@H]2[C@H](/N=C/N3CCCCCC3)C(=O)N2[C@H]1C(=O)O [AMDINOCILLIN] | – | – | – | – | – | – | – | – | > 30 µM
CC(=O)[C@]1(N)Cc2c(O)c3c(c(O)c2[C@@H](O[C@H]2C[C@H](O)[C@H](O)CO2)C1)C(=O)c1ccccc1C3=O [AMRUBICIN] | – | – | – | – | – | – | – | – | > 30 µM
NC(=O)[C@@H]1CC[C@@H]2CN1C(=O)N2OS(=O)(=O)O [AVIBACTAM] | – | – | – | – | – | – | – | – | > 30 µM
CCOC(=O)c1ccc(N)cc1 [BENZOCAINE] | – | > 10 µM | > 10 µM | > 10 µM | > 10 µM | > 10 µM | > 10 µM | > 10 µM | –
CC(C)(Oc1ccc(CCNC(=O)c2ccc(Cl)cc2)cc1)C(=O)O [BEZAFIBRATE] | > 10 µM | > 10 µM | > 10 µM | > 10 µM | > 10 µM | > 10 µM | > 10 µM | > 10 µM | –
CC(O)(CS(=O)(=O)c1ccc(F)cc1)C(=O)Nc1ccc(C#N)c(C(F)(F)F)c1 (centres undefined) [BICALUTAMIDE] | > 30 µM | > 10 µM | > 10 µM | > 30 µM | > 30 µM | > 30 µM | > 30 µM | > 30 µM | –
CC(C)(C)NC(=O)N[C@H](C(=O)N1C[C@H]2[C@@H]([C@H]1C(=O)NC(CC1CCC1)C(=O)C(N)=O)C2(C)C)C(C)(C)C (some centres undefined) [BOCEPREVIR] | – | – | – | – | – | – | – | – | > 30 µM
Cc1ncc2c(c1O)COC2c1ccc(Cl)cc1 (centres undefined) [CICLETANINE] | – | – | – | – | – | – | – | – | > 30 µM
Cc1cn([C@H]2O[C@@H](CO)[C@H](O)[C@H]2F)c(=O)[nH]c1=O [CLEVUDINE] | – | – | – | – | – | – | – | – | > 30 µM
N#Cc1ccc(Oc2ccc3c(c2)COB3O)cc1 [CRISABOROLE] | – | – | – | – | – | – | – | – | > 30 µM
C/C=C(/C(=C/C)c1ccc(O)cc1)c1ccc(O)cc1 [DIENESTROL] | > 10 µM | > 10 µM | > 10 µM | > 10 µM | 0.736 µM | > 30 µM | > 30 µM | > 10 µM | –
CC(=O)[C@H]1CC[C@H]2[C@@H]3C=CC4=CC(=O)CC[C@@]4(C)[C@@H]3CC[C@]12C [DYDROGESTERONE] | – | – | – | – | – | – | – | – | > 30 µM
CC(=O)O[C@H]1Cc2ccccc2N(C(N)=O)c2ccccc21 [ESLICARBAZEPINE ACETATE] | – | – | – | – | – | – | – | – | > 30 µM
Cc1ccc(S(=O)(=O)NC(=O)NC2CCCCC2)cc1 [GLYCYCLAMIDE] | – | – | – | – | – | – | – | – | > 30 µM
COc1ccc([C@@H]2CC(=O)c3c(O)cc(O)cc3O2)cc1O [HESPERETIN] | > 10 µM | > 10 µM | > 10 µM | > 10 µM | > 10 µM | > 10 µM | > 10 µM | > 10 µM | –
CN1CCCN(C(c2ccccc2)c2ccc(Cl)cc2)CC1 (centres undefined) [HOMOCHLORCYCLIZINE] | – | – | – | – | – | – | – | – | 2.98 µM
CN(C)CCCN1c2ccccc2CCc2ccccc21 [IMIPRAMINE] | > 10 µM | 0.174 µM | > 10 µM | 21.4 µM | > 30 µM | – | > 30 µM | > 30 µM | –
CCC[C@@H]1C[C@@H](C(=O)N[C@@H]([C@H]2O[C@H](SC)[C@H](O)[C@@H](O)[C@H]2O)[C@@H](C)O)N(C)C1 [LINCOMYCIN] | > 10 µM | > 10 µM | > 10 µM | > 10 µM | > 10 µM | – | > 10 µM | > 10 µM | –
C=C1c2cccc(O)c2C(=O)C2=C(O)[C@]3(O)C(=O)C(C(N)=O)=C(O)[C@@H](N(C)C)[C@@H]3[C@@H](O)[C@H]12 [METHACYCLINE] | > 30 µM | > 10 µM | > 10 µM | 41.5 µM | > 30 µM | > 30 µM | > 10 µM | > 30 µM | –
Cc1ccccc1N1C(=O)c2cc(S(N)(=O)=O)c(Cl)cc2NC1C (centres undefined) [METOLAZONE] | – | > 10 µM | > 10 µM | > 10 µM | > 10 µM | > 10 µM | > 10 µM | > 10 µM | –
O=C(O)c1cccnc1Nc1cccc(C(F)(F)F)c1 [NIFLUMIC ACID] | – | > 10 µM | > 10 µM | > 10 µM | > 10 µM | > 10 µM | > 10 µM | > 10 µM | –
O=C1c2cccc3c2[C@H](CCC3)CN1[C@@H]1CN2CCC1CC2 [PALONOSETRON] | > 30 µM | > 30 µM | > 30 µM | > 30 µM | > 30 µM | > 30 µM | > 30 µM | > 30 µM | –
O=C1c2ccccc2C(=O)C1c1ccccc1 [PHENINDIONE] | > 10 µM | > 10 µM | > 10 µM | > 10 µM | > 10 µM | > 10 µM | > 10 µM | > 10 µM | –
COC(=O)[C@H]1[C@H]2C[C@@H]3c4[nH]c5cc(OC)ccc5c4CCN3C[C@H]2C[C@@H](OC(=O)c2cc(OC)c(OC)c(OC)c2)[C@@H]1OC [RESERPINE] | > 10 µM | > 10 µM | > 10 µM | > 10 µM | > 10 µM | > 10 µM | 28.5 µM | > 10 µM | –

From ChEMBL document CHEMBL5291721, “A preclinical secondary pharmacology resource illuminates target-adverse drug reaction associations of marketed drugs” (Nat Commun, 2023)
